Experimental data as given in patent US20070237885A1, “PROCESS FOR THE ISOLATION OF LIMONOID GLUCOSIDES FROM CITRUS” (THE TEXAS A & M UNIVERSITY SYSTEM, priority 2006, published 2007).

What was measured:
Anti-oxidant properties = test: Anti-oxidant properties
Source text: This offers potential advantages over the use of synthetic methods which require more complicated procedures to prepare pure limonoid compounds.

cancer cells = test: Inhibition of cancer cells in cell culture models; assay type: cell-based
Source text: (§1) Limon glucoside is a triterpene derivative, in which aglycone part is linked to a glucose moiety, and it is water-soluble. Citrus plants containing the above-named limonoid glucoside derivatives belong to the Rutaceae family, and include, for example, Citrus paradisi and Citrus aurantium. The fresh fruits of Citrus paradisi (Rio Red grapefruit) and Citrus aurantium (sour orange) are currently produced in large amounts as acidulants for preparing juice and pickles in various parts of the World, and thus are readily available sources for extraction of limonoid glucosides. A method or process for isolating limonoid glucosides in gram quantities was devised.

[1] = tested on: MDA-MB-435 oestrogen receptor-negative human breast cancer cells; details: MDA-MB-435 cells; [3H] thymidine incorporation; cited from earlier work
[2] = tested on: DMBA-induced buccal pouch tumours; details: hamsters; cited from earlier work
Water solubility = assay type: physicochemical
Source text: as §1

[3] = tested on: 7,12-dimethylbenz[a]anthracene (DMBA)-induced buccal pouch epidermoid carcinomas; details: cited from earlier work; for incidence of DMBA-induced buccal pouch epidermoid carcinomas: female Syrian hamsters
[4] = tested on: azoxymethane (AOM)-induced aberrant crypt foci (ACF); details: dietary intake; initiation and post-initiation feeding experiments; male F344 rats; cited from earlier work
[5] = tested on: benzo[a]pyrene-induced forestomach neoplasia; details: mice; cited from earlier work

| Molecule | anti-oxidant properties (Anti-oxidant properties) | inhibition of cancer cells (cancer cells) | IC50, inhibition of proliferation [1] [µg/mL] | decrease of average tumour burden [2] | other results |
| --- | --- | --- | --- | --- | --- |
| CC1(C)O[C@H]2CC(=O)OC[C@]23[C@H]2CC[C@@](C)([C@@H](O[C@@H]4O[C@H](CO)[C@@H](O)[C@H](O)[C@H]4O)c4ccoc4)[C@@]4(O[C@@H]4C(=O)O)[C@]2(C)C(=O)C[C@@H]13 [Compound (2), limonin-17-β-D-glucopyanoside] | exhibit anti-oxidant properties | exhibited inhibition | 75 | effective | water solubility (Water solubility): water-soluble |
| CC1(C)O[C@H]2CC(=O)OC[C@]23[C@H]2CC[C@@]4(C)[C@H](c5ccoc5)OC(=O)[C@H]5O[C@]54[C@]2(C)C(=O)C[C@@H]13 [limonin] |  |  | 12.5 |  | incidence of DMBA-induced buccal pouch epidermoid carcinomas [3]: reduced the incidence; comparative inhibition of DMBA-induced neoplasia ([3]; limonin compared with nomilin): more effective inhibitor; formation of aberrant crypt foci (ACF) [4]: significantly inhibited |
| CC(=O)O[C@H]1CC(=O)OC(C)(C)[C@@H]2CC(=O)[C@]3(C)[C@H](CC[C@@]4(C)[C@H](c5ccoc5)OC(=O)[C@H]5O[C@]543)[C@@]12C [nomilin] |  |  | 0.4 |  | incidence of DMBA-induced buccal pouch epidermoid carcinomas [3]: reduced the incidence; inhibition of benzo[a]pyrene-induced forestomach neoplasia [5]: inhibited |
| CC1(C)OC(=O)C=C[C@]2(C)[C@H]3CC[C@@]4(C)[C@H](c5ccoc5)OC(=O)[C@H]5O[C@]54[C@]3(C)C(=O)C[C@@H]12 [obacunone] |  |  |  |  | formation of aberrant crypt foci (ACF) [4]: significantly inhibited |
| deacetyl nomilinic acid glucoside [Compound (3)] | exhibit anti-oxidant properties | exhibited inhibition |  |  |  |
| isoobacunoic-17-β-D-glucopyranoside [Compound (1)] | exhibit anti-oxidant properties | exhibited inhibition |  |  |  |
| nomilin 17-β-D-glucopyranoside [NG] |  |  |  | only LG was effective |  |
| nomilinic acid 17-β-D-glucopyranoside [NAG] |  |  |  | only LG was effective |  |
